Patent US20090028925A1, “Novel Phosphinic Acid-Containing Thyromimetics” (priority 2005, published 2009)

Legend:
[1] = target: T1, human thyroid hormone receptors TRβ1 (Homo sapiens, UniProt P10828); experiment: Receptor binding to TRβ1 (gel filtration and scintillation proximity assay, labeled T3); details: SPA data; read-out: Ki TRβ
T1 construct: made in house; host or cells: Sf9 insect cells (baculovirus)
T1 sequence (P10828 1-461): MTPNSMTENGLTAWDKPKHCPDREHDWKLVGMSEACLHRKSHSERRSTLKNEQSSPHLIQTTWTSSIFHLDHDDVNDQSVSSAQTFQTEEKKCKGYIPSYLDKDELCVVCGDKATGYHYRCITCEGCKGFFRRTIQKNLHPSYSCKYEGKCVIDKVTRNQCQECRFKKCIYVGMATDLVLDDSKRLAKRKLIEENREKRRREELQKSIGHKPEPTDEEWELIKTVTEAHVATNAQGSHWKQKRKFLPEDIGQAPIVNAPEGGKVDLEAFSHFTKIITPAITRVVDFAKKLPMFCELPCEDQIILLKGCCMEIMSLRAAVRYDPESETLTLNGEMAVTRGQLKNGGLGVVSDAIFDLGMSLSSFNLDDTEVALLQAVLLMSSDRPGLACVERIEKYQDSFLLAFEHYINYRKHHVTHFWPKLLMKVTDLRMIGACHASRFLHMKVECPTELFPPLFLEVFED
T1 sequence (P19793 1-462 partner): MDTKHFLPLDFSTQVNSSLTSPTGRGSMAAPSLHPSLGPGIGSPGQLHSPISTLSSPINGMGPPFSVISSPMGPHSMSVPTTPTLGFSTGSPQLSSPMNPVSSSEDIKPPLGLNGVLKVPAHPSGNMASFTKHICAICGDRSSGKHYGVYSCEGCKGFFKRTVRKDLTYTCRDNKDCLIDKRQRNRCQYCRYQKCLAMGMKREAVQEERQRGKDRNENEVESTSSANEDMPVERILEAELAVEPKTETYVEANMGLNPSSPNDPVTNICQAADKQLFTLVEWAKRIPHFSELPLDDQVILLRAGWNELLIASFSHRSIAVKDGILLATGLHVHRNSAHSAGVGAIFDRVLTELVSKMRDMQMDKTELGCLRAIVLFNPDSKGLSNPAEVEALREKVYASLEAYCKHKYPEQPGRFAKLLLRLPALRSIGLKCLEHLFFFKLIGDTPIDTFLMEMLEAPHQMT

[2] = tested on: liver mitochondrial glycerol phosphate dehydrogenase (mGPDH) activity; experiment: Subacute study in normal rats, continuous infusion: liver mGPDH activity; assay type: in vivo, rats (Sprague-Dawley); details: continuous infusion 1 mg/kg/day
From the text: Efficacy endpoints include serum cholesterol, liver mitochondrial glycerol phosphate dehydrogenase (mGPDH) activity and the expression of relevant liver genes (e.g., the LDL-receptor, apoB, cpt-1, spot14 and apoAI). Safety parameters include heart weight, heart rate, heart mGPDH activity, the expression and key genes involved in cardiac structure and function (e.g., Serca2, HCN2, Kv1.5, MHCα, MHCβ, Alpha1c), and standard plasma chemistry analysis (liver enzymes, electrolytes, creatinine). Endocrine effects are monitored by analysis of serum thyroid stimulating hormone (TSH). [Taylor et al., Mol Pharmacol 52(3): 542-7 (1997); Weitzel et al., Eur J Biochem 268(14):4095-4103 (2001)]
(§1) Methods: mGPDH activity was analyzed in isolated mitochondria using 2-(4-iodophenyl)-3-(4-nitrophenyl)-5-phenyl tetrazolium chloride as the terminal electron acceptor (Gardner R S, Analytical Biochemistry 59:272 (1974)). Commercially available GPDH was used in each assay as a standard (Sigma, St. Louis, Mo.). Changes in levels of mRNA for liver and heart genes are analyzed using reverse transcriptase followed by real-time PCR analysis. The analysis is performed using an iCycler instrument (Biorad) and appropriate primers by means of standard methodology [e.g., Schwab D A et al. (2000) Life Sciences 66: 1683-94]. The amounts of mRNA are normalized to an internal control, typically, cyclophilin. Serum TSH is measured using an enzyme immunoassay (EIA) kit designed for rat TSH (Amersham Pharmacia Biotech, Arlington Heights, Ill.).
Normal rats (Sprague-Dawley) were maintained on a standard diet. […] The compounds were brought up to an appropriate volume using PBS and BSA to maintain solubility within the pump. The compounds were chemically stable in the excipient at 37° C. for 7 days.
Values are expressed as percent of control. (Table 4)

liver triglycerides [3] = experiment: Hepatic triglyceride content in normal rats, chronic infusion; assay type: in vivo; details: normal rats chronically infused for 7 days
Description: (§2) Normal rats were chronically infused with Compound 7 for 7 days. Liver triglycerides were analyzed following lipid extraction by the Bligh Dyer method (Bligh E G and Dyer W J, A rapid method of total lipid extraction and purification. Can J Med. Sci. 1959 (August); 37(8):911-7, incorporated herein by reference). Total triglycerides were analyzed in the liver extracts by an enzymatic assay (Thermo Electron Corporation). Total lipid was normalized to initial liver weight and triglyceride content was normalized to liver weight. […] There was a 4% reduction in liver triglycerides for this group and the results were not statistically significant.

liver triglycerides [4] = experiment: Hepatic triglyceride content and steatosis in ZDF rats, oral; assay type: in vivo; details: orally 28 days
Description: as §2
In other experiments, Compound 7 was orally administered to ZDF rats for 28 days. Liver triglycerides were analyzed as described above. Total liver triglycerides were reduced in the treated animals 42% in the 2.5 mg/kg/d group. […] The hepatic steatosis is a well known and described phenomenon for the ZDF rat, and therefore not attributable to vehicle treatment.

[5] = tested on: thyroid stimulating hormone (TSH); experiment: Circulating TSH in rats (cholesterol-fed, ZDF); assay type: in vivo; details: ZDF rats, 50 mg/kg/d for 28 days
Description: as §1
Another concern with synthetic thyromimetics is the suppression of the endogenous thyroid axis. Thyroid homeostasis is maintained by the action of thyroid releasing hormone (TRH) and thyroid stimulating hormone (TSH). […] Although this particular side effect has been noted, it has typically been treated with less concern than the cardiac safety issues. […] Therefore previous investigators have measured TSH levels when testing synthetic thyromimetics and have used a 30% decrease of TSH as the denominator in their therapeutic index calculations. […] Therefore, both compounds suppress TSH as doses lower than that required to decrease circulating cholesterol. […] However, 0.2 mg/kg/d of Compound 18 in 28 day treated ZDF rats, decreased TSH levels greater than 90%.

[6] = Subacute study in cholesterol-fed rats, IP: heart weight and heart mGPDH activity
Description: The cholesterol-fed rat is an animal model of hypercholesterolemia generated by feeding the animals a diet with high cholesterol content.
Serum cholesterol values were assessed and the animals randomized into groups for treatment.

## Cc1cc(OCP(=O)(O)O)cc(C)c1Cc1ccc(O)c(C(C)C)c1 [Compound 7, [3,5-dimethyl-4-(4′-hydroxy-3′-iso-propylbenzyl)phenoxy]methylphosphonic acid]
[1]
  Ki: 3.3 nM
[2]
  Liver GPDH: 399% of control
Liver triglycerides [3]
  reduction in liver triglycerides: 64%
Liver triglycerides [4]
  microvesicular steatosis, histologic analysis of liver sections: dose dependent reduction in the microvesicular steatosis
[5]
  TSH versus vehicle: no statistically significant difference from vehicle
[6]; IP once-a-day for seven days
  cardiac hypertrophy: No cardiac hypertrophy was observed
[6]; IP seven days
  therapeutic window between efficacy (cholesterol lowering) and toxicity (cardiac hypertrophy, heart GPDH): 10- to 100 fold
[6]; IP, 100 mg/kg
  heart GPDH activity: trend towards increased heart GPDH activity
[6]; IP, any dose
  adverse cardiac effects: No adverse cardiac effects were observed
